# Values quoted from earlier work, collected in PMC4946565 (Bioorganic & medicinal chemistry letters, 2016).
# Test system: VMAT2
# Conditions: selectivity VMAT2 over DAT; ref [4], [9], [10]
compound,measurement,value
"CN1[C@@H](CC(=O)c2ccccc2)CCC[C@H]1C[C@H](O)c1ccccc1 [Lobeline, lobeline]",fold higher affinity for VMAT2 compared to DAT,about 100 fold
